{"source": "patent US20090076130A1", "about": "“COMPOUNDS FOR THE INHIBITION OF HISTONE DEACETYLASE” (NATUREWISE BIOTECH & MEDICALS CORPORATION, priority 2007, published 2009)", "key": {"[1]": {"test_system": "MCF-7 cancer cells", "assay": "Cell cycle / DNA of MCF-7 cells by FACScan cytometry", "format": "cell-based, human", "conditions": "72 hours", "procedure": "1×10^6 of rat C6 glioma cells were treated with various concentrations of NBM-HD-1 (0 μg/mL, 2.5 μg/mL, 5 μg/mL, and 10 μg/mL) for 72 hours. The treated cells were trysinized and collected. The cells were resuspended in 200 μL PBS and then fixed by adding 800 μL of cold 100% ethanol. The resulting cells were fixed overnight at −20°. The cell pellets were collected by centrifugation, resuspended in 1 mL of hypotonic buffer (0.5% Triton X-100 in PBS and 1 μg/mL RNase A), and incubated at 37° for 30 minutes. Then, 1 mL of PI solution (50 μg/mL) was added to the resulting cell pellets. The mixture was allowed to stand at 4° for 30 min. The DNA amounts of the cells were analyzed by FACScan Cytometry (Becton Dickinson) (see FIG. 2).\nMCF-7 cancer cells (1×10^6) in a 100-mm dish were treated with various concentrations of NBM-HD-1 (0, 2.5, 5, and 10 μg/mL) or 4 mM sodium butyrate for 72 hours. The samples were prepared following the steps mentioned in [0063]. The DNA of the cells was then analyzed by FACScan cytometry (Becton Dickinson). […] The percentage of G0/G1 phase increased from 74.46 to 92.55 in a dose-dependent manner."}, "[2]": {"test_system": "rat C6 glioma cells", "assay": "Growth of rat C6 glioma cells (observation and cell counting)", "format": "cell-based", "conditions": "2.5, 5 and 10 μg/mL, 48 hours, cell density and cell counting vs control", "procedure": "The cancer cell line, rat C6 glioma cells, was cultured in Dulbecco's modified Eagle's medium (DMEM; Gibco) supplemented with penicillin G, streptomycin sulphate, 0.5 mM of L-glutamine and 10% fetal bovine serum (FBS; Gibco) at 37° C., 5% CO2 and 95% relative humidity. For all experiments, the cells were seeded at a density of 3×10^5 per well in 6-well plates. After 24 hours, the cells were treated with different concentrations of the compound NBM-HD-1 (i.e., the compound of formula III depicted herein). After 48 hours, the cells were observed and counted. According to the results shown in FIG. 1, NBM-HD-1 can arrest the growth of rat C6 glioma cells. After the C6 glioma cells were incubated with 2.5 μg/mL (see FIG. 1(A)-b), 5 μg/mL (see FIG. 1(A)-c) and 10 μg/mL (see FIG. 1(A)-d) of NBM-HD-1 for 48 hours, the density of the cells reduced dramatically in comparison with that of control (see FIG. 1(A)-a)."}, "[3]": {"test_system": "human giloblastoma DBTRG-05MG cancer cells", "assay": "Growth and morphology of human giloblastoma DBTRG-05MG cancer cells", "format": "cell-based", "conditions": "72 hours", "procedure": "The human giloblastoma DBTRG-05MG cancer cells were cultured in RPMI medium 1640 (Gibco) supplemented with penicillin G, streptomycin sulphate, 0.5 mM of L-glutamine and 10% fetal bovine serum (FBS; Gibco), 100 mh/L sodium pyruvate (Gibco), and 1% NEAA (Gibco) at 37° C., 5% CO2 and 95% relative humidity. For these experiments, the cells were seeded at a density of 3×10^5 per well of 6-well plates. After 24 hours, the cells were treated with different concentrations of NBM-HD-1 and 4 mM sodium butyrate. The cells were observed and counted after 72 hours. […] In 05MG cells (FIG. 7(A)), after incubation with 2.5 μg/mL (FIG. 7(A)-b), 5 μg/mL (FIG. 7(A)-c) and 10 μg/mL (FIG. 7(A)-d) of NBM-HD-1 for 72 hours, the density of the cells reduced dramatically in comparison with that of the control group (FIG. 7(A)-a). The 05MG cells in the experimental group also changed to become longer than those in the control group."}, "[4]": {"test_system": "p21", "assay": "RT-PCR of p21 mRNA in MCF-7 cells", "format": "cell-based, human", "conditions": "different doses, 24 hours", "procedure": "The cell cycle related to p21 mRNA expression was examined by RT-PCR. The total RNAs were isolated from the treated MCF-7 cells and used in the RT reaction. cDNA (1 μl) was used as a template to amplify p21 gene by PCR. GAPDH was used as an internal control. […] In this experiment, MCF-7 cells were treated with different doses of NBM-HD-1 for 24 hours."}, "[5]": {"test_system": "cyclinD1, cyclinB1, p21", "assay": "RT-PCR of cell cycle regulator genes in C6 glioma cells", "format": "cell-based, rat", "conditions": "GAPDH internal control", "procedure": "For the rat C6 glioma cells, the cell cycle related to mRNA expression was examined by RT-PCR. The total RNAs were isolated from the treated C6 cells by using the RNeasy Mini Kit (Qiagen) according to the manufacturer's instructions. The cDNAs were produced from 500 ng of total RNAs using ReverTra-Plus-™ (TOYOBO). The RT product (1 μl) was amplified by PCR with primers to analyze several genes of cell cycle by using GAPDH as an internal control. According to the results of FIG. 3, NBM-HD-1 can modulate the expression of some cell cycle regulators. […] On the contrary, the expression of p21 was increased."}, "[6]": {"test_system": "GFAP", "assay": "GFAP expression in C6 glioma cells (immuno-fluorescent staining, RT-PCR)", "format": "cell-based, rat", "procedure": "After the C6 glioma cells were incubated with 10 μg/mL NBM-HD-1 for 24 hours, they were fixed and analyzed by the traditional immuno-fluorescent staining method. Staining of glia was carried out by using glial-specific GFAP antibody (SIGMA) as the primary antibody and a fluorescence labeled rabbit immuno-globulin (SIGMA) as the secondary antibody to bind with the primary antibody. The cells which are GFAP-positive were excited by a specific light source to emit fluorescence. Also, the nuclei were stained with DAPI. […] In contrast with the control group, more GFAP proteins were detected in the photos of the cells being treated with 10 μg/mL of NBM-HD-1.\nThe GFAP mRNA expression was examined by RT-PCR."}}, "data": [{"smiles": "COc1cc2c(c(OC)c1CCC(C)(C)O)C(=O)C[C@@H](c1ccc(OC)c(OC)c1C/C=C(\\C)CCCC(C)(C)O)O2", "note": "[NBM-HD-1]", "values": [{"measurement": "cell cycle of MCF-7 cells", "setting": "[1]; 0, 2.5, 5, 10 μg/mL", "result": "arrested on the G0/G1 phase in a dose-dependent manner"}, {"measurement": "S and G2/M phases of the cells", "setting": "[1]; MCF-7, 0, 2.5, 5, 10 μg/mL", "result": "significantly decreased both S and G2/M phases of the cells in a dose-dependent manner"}, {"measurement": "growth of C6 glioma cells", "setting": "[2]", "result": "can inhibit the growth of C6 glioma cells in a dose-dependent manner"}, {"measurement": "morphology of 05MG cancer cells", "setting": "[3]; 2.5, 5, 10 μg/mL", "result": "change the morphology of 05MG cancer cells"}, {"measurement": "growth of 05MG cancer cells", "setting": "[3]; NBM-HD-1 2.5, 5, 10 μg/mL or 4 mM sodium butyrate", "result": "can inhibit the growth of 05MG cells in a dose-dependent manner"}, {"measurement": "p21 mRNA expression", "setting": "[4]", "result": "induced the expression of p21 in a dose-dependent manner"}, {"measurement": "expression of cyclinD1 and cyclinB1", "setting": "[5]", "result": "decrease the expression of cyclinD1 and cyclinB1 in a dose-dependent manner"}, {"measurement": "expression of p21", "setting": "[5]", "result": "increased"}, {"measurement": "GFAP expression (immuno-fluorescent staining)", "setting": "[6]; 10 μg/mL, 24 hours", "result": "can induce the GFAP expression of C6 glioma cancer cells"}, {"measurement": "GFAP mRNA expression", "setting": "[6]; RT-PCR", "result": "increased in a dose-dependent manner"}]}]}
